Here are results for 4 molecules from article PMC12621202, “RTx-303, an Orally Bioavailable Polθ Polymerase Inhibitor That Potentiates PARP Inhibitors in BRCA Mutant Tumors” (Journal of Medicinal Chemistry, 2025).

Values joined by “and” are separate entries in the source; they are usually repeats but may differ in a detail not shown here. Identical values can stand only once. Like-named read-outs stand apart in the source and are kept apart here. Bounds are passed on as bounds.

A short description of data set [1]: Pharmacokinetics in CD-1 mice. The data set is classed as in vivo. The note with it: for bioavailability / Cmax / Tmax / AUC(0-t) / half-life: male, mouse, plasma; for AUC(0-t): read-out: AUClast (PO); for half-life: read-out: T1/2 (PO) (converted). As to the method: For the pharmacokinetics study, CD-1 male mice (6–8 weeks) were dosed by IV or PO at the indicated concentrations of the indicated compounds dissolved in 5% DMSO, 5% ethanol, 20% TPGS, 30% PEG400, 40% water. Plasma samples were collected at the indicated time points and the indicated compound levels were determined by using standard protocols with a calibration curve and LC/MS. The pharmacokinetic studies was carried out by Pharmaron.

Data set [2] is described as follows: Stability in PBS, simulated gastric fluid and simulated intestinal fluid. The settings on record: for stability in simulated intestinal and gastric fluids, plasma and PBS buffer: statement in words covering all four matrices. The data set is classed as in vitro ADME. On the procedure: Stability in PBS, SGF (simulated gastric fluid) and SIF (simulated intestinal fluid) assays. The stability of test compounds was determined in Dulbecco’s PBS (control solution; pH = 7.4; 136.9 mM NaCl; 2.68 mM KCl; 8.1 mM Na2HPO4; 1.47 mM KH2PO4; 0.9 mM CaCl2 and MgCl2, US Pharmacopeia, defined (US Pharmacopoeia 33–28NF; 2010) Simulated Gastric Fluid (SGF; 0.2% NaCl, 84 mM HCl, pH 1.2 with 3.2 mg/mL pepsin from porcine gastric mucosa), or US Pharmacopoeia-defined Simulated Intestinal Fluid (SIF; 50 mM potassium phosphate, pH 6.8; with 10 mg/mL pancreatin from porcine pancreas). Reactions were conducted in 96-well deep-well (1 mL) polypropylene plates in duplicate. 540 μL of prewarmed 1.11× PBS, SGF or SIF was added to wells of the prewarmed plate in the Labnet Vortemp incubator at 37 °C. Reactions were initiated by adding 60 μL of a 50 μM test compound in water (final concentration of 5 μM) to test wells. Samples were mixed and incubated with gentle shaking. At 0, 30, 90, 210 min, 75 μL aliquots were transferred to a stop plate (96-well plate with 300 μL of ACN:water 1:1 with 0.05 μM propafenone) on ice. After all time points, the stop plate was centrifuged 10 min at 2270 × g in a Beckman Coulter Allegra 6R centrifuge and 170 μL of the supernatants were transferred to a Waters Acquity UPLC 700 μL 96-well sample plate and sealed with a cap mat. After centrifugation (10 min; 4000 × g), supernatants were analyzed by LC/MS as described. Standard curves (0–1000 nM) were generated in PBS and plasma. Data were fit to a one-phase decay equation using GraphPad Prism 5.04 to generate T1/2 values.

Data set [3] deals with T1, recombinant human Polθ-pol (Homo sapiens, UniProt O75417).
T1 construct: purified recombinant human Polθ-pol (comprising amino acid residues 1792–2590); made in house
T1 sequence (O75417 1792-2590): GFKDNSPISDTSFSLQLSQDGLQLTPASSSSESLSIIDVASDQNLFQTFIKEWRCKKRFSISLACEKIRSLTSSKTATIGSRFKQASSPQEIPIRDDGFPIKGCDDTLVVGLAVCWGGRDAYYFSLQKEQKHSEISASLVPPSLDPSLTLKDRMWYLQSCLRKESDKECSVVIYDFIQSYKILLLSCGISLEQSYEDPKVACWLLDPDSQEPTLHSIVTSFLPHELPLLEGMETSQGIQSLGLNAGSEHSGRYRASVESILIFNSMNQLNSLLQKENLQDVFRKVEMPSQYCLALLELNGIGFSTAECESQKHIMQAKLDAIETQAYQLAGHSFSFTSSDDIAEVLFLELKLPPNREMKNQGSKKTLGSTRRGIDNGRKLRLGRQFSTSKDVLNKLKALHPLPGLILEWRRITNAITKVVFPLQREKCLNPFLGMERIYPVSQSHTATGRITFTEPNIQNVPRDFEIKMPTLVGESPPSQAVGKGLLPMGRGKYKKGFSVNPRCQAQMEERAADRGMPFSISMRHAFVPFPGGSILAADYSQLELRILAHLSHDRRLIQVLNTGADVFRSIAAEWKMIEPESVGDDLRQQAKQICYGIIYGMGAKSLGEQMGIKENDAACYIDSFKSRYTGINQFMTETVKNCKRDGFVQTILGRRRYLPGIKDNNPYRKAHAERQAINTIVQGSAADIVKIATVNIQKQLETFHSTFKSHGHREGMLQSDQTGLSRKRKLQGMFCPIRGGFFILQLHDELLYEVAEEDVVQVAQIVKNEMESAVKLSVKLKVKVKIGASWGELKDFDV
The experiment in a line: Fluorescent-based IC50 DNA synthesis assay. It counts as biochemical. The note with it: n=3. On the procedure:
The biochemical Polθ-pol IC50 assay was developed in a prior report. Briefly, 60 nM of the preannealed primer-template containing a 5′ Cy5 fluorophore-conjugated template strand (RP486-Cy5), a downstream complementary oligo conjugated with a 3′ Iowa BlackReg Dark quencher (RP343BHQRQ) and a primer strand (RP469D) was mixed with 50 μM 2’-deoxyribonucleoside triphosphates (dNTPs), 0.1 mg/mL bovine serum albumin (BSA), 0.01% NP-40, 10% glycerol, 1 mM dithiothreitol (DTT), 10 mM MgCl2, 25 mM TrisHCl pH 7.8 in the presence of 2.5% DMSO with or without various concentrations (7-point dilution series) of Polθ-pol small-molecule inhibitors at 37 °C in a volume of 40 μL. The reactions were initiated by the addition of 5 nM of purified recombinant human Polθ-pol (comprising amino acid residues 1792–2590). The reactions were terminated by the addition of 20 mM EDTA after 18 min, and the Cy5 fluorescence intensity was measured using a CLARIOstar (BMG Labtech) plate reader. Reactions were performed in triplicate and the % inhibition at each concentration of the respective compound was based on the mean.

Setting [4] is: Dulbecco's PBS, pH 7.4, read-out: T1/2 PBS.
The mark [5] stands for this setting: simulated gastric fluid (SGF) with pepsin, pH 1.2, read-out: T1/2 simulated gastric fluid.
Where [6] appears, read: simulated intestinal fluid (SIF) with pancreatin, pH 6.8, read-out: T1/2 simulated intestinal fluid.

Turning to `[2H]C([2H])([2H])N(C(=O)Oc1c(N2CCN(CC(O)CN(C)C)C2=O)cc(C(F)(F)F)cc1C(F)(F)F)c1ccc(F)cc1` (stereo not drawn) [RTx-284, 2-{3-[3-(Dimethylamino)-2-hydroxypropyl]-2-oxoimidazolidin-1-yl}-4,6-bis(trifluoromethyl)phenyl N-(4-fluorophenyl)-N-(methyl-d3)-carbamate], the bioavailability in data set [1] (5 mg/kg IV, 15 mg/kg PO (n=3)) is 100% and 103%; in data set [1] (15 mg/kg IV, 50 mg/kg PO (n=3)), 99%. Also, the figures for the Cmax in data set [1] (15 mg/kg PO (n=3)) and in data set [1] (50 mg/kg PO (n=3)) were 659 ng/mL and 2750 ng/mL, respectively. Also, the figures for the Tmax in data set [1] (15 mg/kg PO (n=3)) and in data set [1] (50 mg/kg PO (n=3)) were 1.33 h and 2 h, respectively. Further, the figures for the AUC(0-t) in data set [1] (15 mg/kg PO (n=3)) and in data set [1] (50 mg/kg PO (n=3)) were 5930 ng·h/mL and 30700 ng·h/mL, respectively. Besides, the results for the half-life in data set [1] (15 mg/kg PO (n=3)) and in data set [1] (50 mg/kg PO (n=3)) were 146 min and 199 min, respectively. The half-life at 5 μM in data set [2] (setting [4]), in data set [2] (setting [5]) and in data set [2] (setting [6]) was more than 180 min in each case. Further, the IC50 – broadly, the point on the concentration scale where inhibition reaches its midpoint – in data set [3] amounted to 5.5 nM.

For the molecule `[2H]C([2H])([2H])N(C(=O)Oc1c(N2CCN(C[C@H](O)CN(C)C)C2=O)cc(C(F)(F)F)cc1C(F)(F)F)c1ccc(F)cc1` [RTx-303], the bioavailability in data set [1] (15 mg/kg IV, 50 mg/kg PO (n=3)) is 88% and 88.1%. In data set [1] (50 mg/kg PO (n=3)), the Cmax (as a rule, the maximum level reached in the sampled fluid or tissue) is 2640 ng/mL; the Tmax – broadly, the time at which the peak concentration occurs – is 3.3 h; the AUC(0-t) stood at 30200 ng·h/mL; the half-life was 156 min. Moreover, the “Avg. free unbound exposure” value in data set [1] (parent compound, 50 mg/kg PO (n=3)) was 86 nM/h. For the same molecule, the “stability in simulated intestinal and gastric fluids, plasma and PBS buffer” value in data set [2] is “high stability”. In data set [3], the IC50 stood at 5.1 nM.

Take `[2H]C([2H])([2H])N(C(=O)Oc1c(N2CCN(CC(O)CNC)C2=O)cc(C(F)(F)F)cc1C(F)(F)F)c1ccc(F)cc1` (stereo not drawn) [RTx-283, 2-(3-(2-Hydroxy-3-(methylamino)propyl)-2-oxoimidazolidin-1-yl)-4,6-bis(trifluoromethyl)phenyl (4-fluorophenyl)(methyl-d3)carbamate]: the bioavailability in data set [1] (5 mg/kg IV, 15 mg/kg PO (n=3)) turned out to be 44.3%. Besides, in data set [1] (15 mg/kg PO (n=3)), the peak level (Cmax) was 453 ng/mL, the Tmax turned out to be 0.5 h, the AUC(0-t) was 2370 ng·h/mL and the half-life is 269 min. For the same molecule, the half-life at 5 μM in data set [2] (setting [4]) was more than 180 min. For the same molecule, in data set [2] (setting [5]), the half-life at 5 μM is more than 180 min. Also, the half-life at 5 μM in data set [2] (setting [6]) is more than 180 min. The IC50 in data set [3] stood at 6.1 nM.

As to `[2H]C([2H])([2H])N(C(=O)Oc1c(N2CCN(C[C@H](O)CNC)C2=O)cc(C(F)(F)F)cc1C(F)(F)F)c1ccc(F)cc1` [RTx-315], the “stability in simulated intestinal and gastric fluids, plasma and PBS buffer” value in data set [2] is “high stability”. The concentration for half-maximal inhibition (IC50) in data set [3] is 13.6 nM.
